Laboratory results taken from ChEMBL document CHEMBL1132025, “Macrocyclic hexapeptide analogues of the thrombin receptor (PAR-1) activation motif SFLLRN” (Bioorg Med Chem Lett, 1999).
Numbered stars: 1 amine (or outer) side, 2 acyl side, 3 side chain; on linkers, the order of the positions; unused ones are H or OH. Bridge positions count the residues as written; N and C are the ends. Square brackets hold non-standard residues; d marks the D form. Peptide text beside a SMILES is read from it. Phe(3-F) = N[C@@H](Cc1cccc(F)c1)C(=O)O; Phe(4-F) = N[C@@H](Cc1ccc(F)cc1)C(=O)O; X1 = O=C(CCCN[*:2])[*:1]; GABA = NCCCC(=O)O; βAla = NCCC(=O)O

What was measured:
[1] = target: Proteinase-activated receptor 1 (Homo sapiens) (UniProt P25116); assay: In vitro antagonist activity to inhibit human platelet aggregation (gel-filtered platelets) induced by human thrombin at a concentration of 50 uM
[2] = species on record: Homo sapiens; assay: (§1) Agonist activity to activate human platelet aggregation (gel-filtered platelets) at a concentration of 50 uM; assay type: functional
[3] = species on record: Homo sapiens; assay: as §1; assay type: functional, organism-based
[4] = species on record: Homo sapiens; assay: Agonist activity to activate human platelet aggregation (gel-filtered platelets) at a concentration of 100 uM; Not active; assay type: functional

SMILES	inhibition [1] [%]	Aggregation [2] [%]	EC50 [3] [µM]	EC50 [4]
CC(C)C[C@@H]1NC(=O)[C@@H](NC(=O)[C@@H](CCc2ccccc2)NC(=O)[C@@H](N)CO)CCCCNC(=O)C[C@@H](C(N)=O)NC(=O)[C@H](CCCN=C(N)N)NC1=O	5	16	–	–
CC(C)C[C@@H]1NC(=O)[C@@H](NC(=O)[C@@H](CCc2ccccc2)NC(=O)CN)CCCCNC(=O)C[C@@H](C(N)=O)NC(=O)[C@H](CCCN=C(N)N)NC1=O	2	5	–	–
CC(C)C[C@@H]1NC(=O)[C@@H](NC(=O)[C@@H](CCc2ccccc2)NC(=O)CCN)CCCCNC(=O)C[C@@H](C(N)=O)NC(=O)[C@H](CCCN=C(N)N)NC1=O	1	7	–	–
CC(C)C[C@@H]1NC(=O)[C@@H](NC(=O)[C@@H](CCc2ccccc2)NC(=O)CCCN)CCCCNC(=O)C[C@@H](C(N)=O)NC(=O)[C@H](CCCN=C(N)N)NC1=O	2	8	–	–
CC(C)C[C@H](NC(=O)[C@H](CC(C)C)NC(=O)[C@H](Cc1ccccc1)NC(=O)[C@@H](N)CO)C(=O)N[C@@H](CCCN=C(N)N)C(=O)N[C@@H](CC(N)=O)C(N)=O	–	–	0.8	–
CC(C)C[C@@H]1NC(=O)[C@@H](NC(=O)[C@@H](CCc2ccccc2)NC(=O)CCCN)CCCCNC(=O)C[C@@H](C(N)=O)NC(=O)[C@H](Cc2ccccc2)NC1=O	15	–	37	–
CC(C)C[C@@H]1NC(=O)[C@@H](NC(=O)[C@@H](CCc2ccccc2)NC(=O)[C@@H](N)CO)CCCCNC(=O)C[C@@H](C(N)=O)NC(=O)[C@H](Cc2ccccc2)NC1=O	2	–	–	Not Active
CC(C)C[C@@H]1NC(=O)[C@@](C)(NC(=O)[C@@H](Cc2ccccc2)NC(=O)CN)CCCCNC(=O)CCCNC(=O)C[C@@H](C(N)=O)NC(=O)[C@H](CCCN=C(N)N)NC1=O	44	–	30	–
CC(C)C[C@@H]1NC(=O)[C@@H](NC(=O)[C@@H](CCc2ccccc2)NC(=O)CCN)CCCCNC(=O)C[C@@H](C(N)=O)NC(=O)[C@H](Cc2ccccc2)NC1=O	16	–	43	–
CC(C)C[C@@H]1NC(=O)[C@@H](NC(=O)[C@@H](Cc2ccccc2)NC(=O)CCN)CCCCNC(=O)C[C@@H](C(N)=O)NC(=O)[C@H](Cc2ccccc2)NC1=O	11	–	–	Not Active
CC(C)C[C@@H]1NC(=O)[C@@H](NC(=O)[C@@H](CCc2ccccc2)NC(=O)CN)CCCCNC(=O)C[C@@H](C(N)=O)NC(=O)[C@H](Cc2ccccc2)NC1=O	1	–	–	Not Active
CC(C)C[C@@H]1NC(=O)[C@@H](NC(=O)[C@H](Cc2ccccc2)NC(=O)[C@H](C)N)CCCCNC(=O)C[C@@H](C(N)=O)NC(=O)[C@H](CCCN=C(N)N)NC1=O (H-AFKLRD-NH2; lactam 3-6)	2	–	66	–
CC(C)C[C@@H]1NC(=O)[C@@H](NC(=O)[C@H](Cc2ccccc2)NC(=O)CN)CCCCNC(=O)C[C@@H](C(N)=O)NC(=O)[C@H](Cc2ccccc2)NC1=O (H-GFKLFD-NH2; lactam 3-6)	23	–	24	–
CC(C)C[C@@H]1NC(=O)[C@@H](NC(=O)[C@H](Cc2ccccc2)NC(=O)CN)CCCCNC(=O)C[C@@H](C(N)=O)NC(=O)[C@H](CCCN=C(N)N)NC1=O (H-GFKLRD-NH2; lactam 3-6)	9	15	–	–
CC(C)C[C@@H]1NC(=O)[C@@H](NC(=O)[C@H](Cc2cccc(F)c2)NC(=O)CN)CCCCNC(=O)C[C@@H](C(N)=O)NC(=O)[C@H](Cc2ccccc2)NC1=O (H-G[Phe(3-F)]KLFD-NH2; lactam 3-6)	11	–	63	–
CC(C)C[C@@H]1NC(=O)[C@@H](NC(=O)[C@H](Cc2cccc(F)c2)NC(=O)CN)CCCCNC(=O)C[C@@H](C(N)=O)NC(=O)[C@H](CCCN=C(N)N)NC1=O (H-G[Phe(3-F)]KLRD-NH2; lactam 3-6)	10	6	–	–
CC(C)C[C@@H]1NC(=O)[C@@H](NC(=O)[C@H](Cc2ccc(F)cc2)NC(=O)CN)CCCCNC(=O)C[C@@H](C(N)=O)NC(=O)[C@H](CCCN=C(N)N)NC1=O (H-G[Phe(4-F)]KLRD-NH2; lactam 3-6)	14	–	60	–
CC(C)C[C@@H]1NC(=O)[C@H](CC(C)C)NC(=O)[C@H](Cc2ccccc2)NC(=O)[C@@H](N)CCCCNC(=O)C[C@@H](C(N)=O)NC(=O)[C@H](CCCN=C(N)N)NC1=O (H-KFLLRD-NH2; lactam 1-6)	3	6	–	–
CC(C)C[C@@H]1NC(=O)[C@H](CC(C)C)NC(=O)[C@H](Cc2ccccc2)NC(=O)[C@@H](N)CCCCNC(=O)CCCNC(=O)C[C@@H](C(N)=O)NC(=O)[C@H](CCCN=C(N)N)NC1=O (H-KFLLRD-NH2; linker 1-6 via X1)	52	5	–	–
CC(C)C[C@@H]1NC(=O)[C@@H](NC(=O)[C@H](Cc2ccccc2)NC(=O)[C@@H](N)CO)CCCCNC(=O)C[C@@H](C(N)=O)NC(=O)[C@H](Cc2ccccc2)NC1=O (H-SFKLFD-NH2; lactam 3-6)	12	–	–	Not Active
CC(C)C[C@@H]1NC(=O)[C@@H](NC(=O)[C@H](Cc2ccccc2)NC(=O)[C@@H](N)CO)CCCCNC(=O)C[C@@H](C(N)=O)NC(=O)[C@H](CCCN=C(N)N)NC1=O (H-SFKLRD-NH2; lactam 3-6)	13	16	–	–
CC(C)C[C@@H]1NC(=O)[C@@H](NC(=O)[C@H](Cc2cccc(F)c2)NC(=O)[C@@H](N)CO)CCCCNC(=O)C[C@@H](C(N)=O)NC(=O)[C@H](Cc2ccccc2)NC1=O (H-S[Phe(3-F)]KLFD-NH2; lactam 3-6)	23	–	–	Not Active
CC(C)C[C@@H]1NC(=O)[C@@H](NC(=O)[C@H](Cc2cccc(F)c2)NC(=O)[C@@H](N)CO)CCCCNC(=O)C[C@@H](C(N)=O)NC(=O)[C@H](CCCN=C(N)N)NC1=O (H-S[Phe(3-F)]KLRD-NH2; lactam 3-6)	5	12	–	–
CC(C)C[C@@H]1NC(=O)[C@@H](NC(=O)[C@H](Cc2ccccc2)NC(=O)CCCN)CCCCNC(=O)C[C@@H](C(N)=O)NC(=O)[C@H](Cc2ccccc2)NC1=O (H-[GABA]FKLFD-NH2; lactam 3-6)	14	–	–	Not Active
CC(C)C[C@@H]1NC(=O)[C@@H](NC(=O)[C@H](Cc2ccccc2)NC(=O)CCCN)CCCCNC(=O)C[C@@H](C(N)=O)NC(=O)[C@H](CCCN=C(N)N)NC1=O (H-[GABA]FKLRD-NH2; lactam 3-6)	6	6	–	–
CC(C)C[C@@H]1NC(=O)[C@@H](NC(=O)[C@H](Cc2cccc(F)c2)NC(=O)CCCN)CCCCNC(=O)C[C@@H](C(N)=O)NC(=O)[C@H](Cc2ccccc2)NC1=O (H-[GABA][Phe(3-F)]KLFD-NH2; lactam 3-6)	27	–	–	Not Active
CC(C)C[C@@H]1NC(=O)[C@@H](NC(=O)[C@H](Cc2cccc(F)c2)NC(=O)CCCN)CCCCNC(=O)C[C@@H](C(N)=O)NC(=O)[C@H](CCCN=C(N)N)NC1=O (H-[GABA][Phe(3-F)]KLRD-NH2; lactam 3-6)	2	6	–	–
CC(C)C[C@@H]1NC(=O)[C@@H](NC(=O)[C@H](Cc2ccccc2)NC(=O)CCN)CCCCNC(=O)C[C@@H](C(N)=O)NC(=O)[C@H](CCCN=C(N)N)NC1=O (H-[βAla]FKLRD-NH2; lactam 3-6)	3	7	–	–
CC(C)C[C@@H]1NC(=O)[C@@H](NC(=O)[C@H](Cc2cccc(F)c2)NC(=O)CCN)CCCCNC(=O)C[C@@H](C(N)=O)NC(=O)[C@H](Cc2ccccc2)NC1=O (H-[βAla][Phe(3-F)]KLFD-NH2; lactam 3-6)	24	–	–	Not Active
CC(C)C[C@@H]1NC(=O)[C@@H](NC(=O)[C@H](Cc2cccc(F)c2)NC(=O)CCN)CCCCNC(=O)C[C@@H](C(N)=O)NC(=O)[C@H](CCCN=C(N)N)NC1=O (H-[βAla][Phe(3-F)]KLRD-NH2; lactam 3-6)	3	7	–	–
